{"source": "patent US12644117B2", "about": "“Method of enabling pooled-library based nucleic acid constructs screening” (priority 2019, dated 2026)", "test_system": "recombinant ACMNPV baculovirus", "test": "Baculovirus spreading in Sf9 insect cells infected with YFP-expressing recombinant baculovirus, read by fluorescence microscopy", "assay_type": "cell-based, Spodoptera Frugiperda", "method": "A recombinant ACMNPV baculovirus was generated by homologous recombination and expressed a target fluorescent protein. The fluorescent protein was the Yellow Fluorescent Protein (YFP) from the organism Aequorea Victoria. • Three hours before infection 0.5 million Sf9 insect cells (ThermoFisher) were seeded into two wells of a 6 well-plate (ThermoFisher). Sf9 cells are cultivated in sf900 II media (ThermoFisher). • The initial viral stock titer was estimated to be approximately 1 million baculoviruses per milliliter. The recombinant baculovirus was added to the cells to reach a MOI of approximately 0.02. The added virus volume per well was 10 micolitre. The virus was resuspended in sf900 II media (ThermoFisher). • Cells were incubated in a 27° C. incubator. Four hours after infection, attached cells are washed with PBS to remove baculoviruses which have not penetrated into cells. The wash consisted of three times with 1 ml per cell of PBS media. • Chloroquine diphosphate salt (CC6628 from Sigma) was added to a final concentration of 0.8 mM. In the control condition insect cell media without chloroquine was added to the cells. Cells were incubated in a 27° C. incubator.\nFluorescence microscopy was performed 2 days after infection (FIG. 2A).\nIn the presence of chloroquine, the proportion of fluorescent cells is constant despite an increase of fluorescence intensity by cell (FIG. 2B), indicating accumulation of expressed YFP protein and virus without increasing the number of infected cells. […] In addition the virus produced high quality protein correctly folded within the individual cells.", "key": {"[1]": {"conditions": "MOI approximately 0.02, chloroquine 0.8 mM, five days after infection (FIG. 2B)"}}}
{"compound": "CCN(CC)CCCC(C)Nc1ccnc2cc(Cl)ccc12", "note": "(stereo not drawn) [chloroquine, Chloroquine]", "values": [{"measurement": "proportion of fluorescent cells", "setting": "MOI approximately 0.02, chloroquine 0.8 mM added four hours after infection, 2 days after infection (FIG. 2A)", "result": "around 1%"}, {"measurement": "fluorescence intensity by cell (accumulation of expressed YFP protein)", "setting": "[1]", "result": "increase"}, {"measurement": "proportion of fluorescent cells", "setting": "[1]", "result": "constant"}]}
